From patent US4954502A, “1-indolyalkyl-4-(substituted-pyridinyl)piperazines” (Bristol-Myers Squibb Company, priority 1989, dated 1990)
Where a name gives a salt, the structure may show the parent alone.

What follows are molecules tested against T1, serotonin uptake (Rattus norvegicus, UniProt P31652) (assay: Inhibition of serotonin uptake (in vitro): inhibition of synaptosomal reuptake of tritiated serotonin).
T1 construct: from tissue
T1 sequence (P31652 whole entry): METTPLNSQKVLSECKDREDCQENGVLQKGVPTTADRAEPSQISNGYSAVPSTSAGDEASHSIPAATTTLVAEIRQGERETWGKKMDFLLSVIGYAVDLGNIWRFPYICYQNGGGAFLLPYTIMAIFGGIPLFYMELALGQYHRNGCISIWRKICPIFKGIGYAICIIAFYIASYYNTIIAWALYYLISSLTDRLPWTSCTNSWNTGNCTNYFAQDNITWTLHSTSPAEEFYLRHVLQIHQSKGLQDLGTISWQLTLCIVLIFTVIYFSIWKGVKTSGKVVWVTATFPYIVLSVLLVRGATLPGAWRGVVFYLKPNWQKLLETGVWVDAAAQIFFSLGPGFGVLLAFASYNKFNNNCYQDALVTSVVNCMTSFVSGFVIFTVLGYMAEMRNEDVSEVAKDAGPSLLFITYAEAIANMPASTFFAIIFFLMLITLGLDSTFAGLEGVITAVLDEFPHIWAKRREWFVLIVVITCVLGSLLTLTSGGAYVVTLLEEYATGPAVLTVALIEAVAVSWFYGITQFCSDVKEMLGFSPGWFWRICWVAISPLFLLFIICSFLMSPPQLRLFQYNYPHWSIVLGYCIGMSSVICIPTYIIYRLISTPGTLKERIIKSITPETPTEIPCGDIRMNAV
Format: biochemical
Protocol: Determination of endogenous monoaminergic re-uptake inhibition values both for serotonin and norepinephrine was accomplished using test methods described by P. Skolnick, et al.. Br. J. Pharmacology (1985), 86, pp. 637-644; with only minor modifications. In vitro IC50 (nM) test values were determined for representative compounds of Formula I based on their inhibition of synaptosomal reuptake of tritiated serotonin. Test data IC50 values lower than 500 nM are considered to reflect activity as an inhibitor of serotonin reuptake. Compounds with Ic50 values lower than 1OO nM comprise preferred compounds.
`Clc1cccc(N2CCN(CCc3c[nH]c4ccccc34)CC2)n1` [Example 14, 4-[6-Chloro-2-pyridinyl]-1-[2-(1H-indol-3-yl)-ethyl]piperazine hydrochloride] was tested, and the IC50 was 74 nM. `FC(F)(F)c1cccc(N2CCN(CCc3c[nH]c4ccccc34)CC2)n1` [Example 15, 1-[2-(1H-indol-3-yl)-ethyl]-4-6-trifluoromethyl-2-pyridinyl]piperazine hydrochloride] was tested, and the IC50 was 73 nM. Work on `COc1cccc(N2CCN(CCc3c[nH]c4ccccc34)CC2)n1` [Example 16, 1-[2-(1H-indol-3-yl)-ethyl]-4[6-methoxy-2-pyridinyl-piperazine hydrate] yielded an IC50 of 88 nM. With `FC(F)(F)c1cccnc1N1CCN(CCc2c[nH]c3ccccc23)CC1` [Example 17, 1-[2-(1H-indol-3-yl)-ethyl]-4-[3-trifluoromethyl-2-pyridinyl]piperazine hydrochloride] the IC50 was 37 nM. In the case of `COc1cccnc1N1CCN(CCc2c[nH]c3ccccc23)CC1` [Example 18, 1-[2-(1H-indol-3-yl)-ethyl]-4-[3-methoxy-2-pyridinyl]-piperazine], the IC50 is reported as 13 nM. Work on `Clc1cccc(N2CCN(CCCc3c[nH]c4ccccc34)CC2)n1` [Example 19, 1-(6-Chloro-2-pyridinyl)-4-[3-(1H-indol-3-yl)propyl]piperazine hydrochloride] yielded an IC50 of 98 nM. Work on `COc1cccnc1N1CCN(CCCc2c[nH]c3ccccc23)CC1` [Example 20, 1-[3-(1H-indol-3-yl)-propyl]-4-[3-methoxy-2-pyridinyl]piperazine dihydrochloride hydrate] yielded an IC50 of 1.1 nM. Molecule `COc1cccnc1N1CCN(CCCCc2c[nH]c3ccccc23)CC1` [Example 21, 1-[4-(1H-indol-3-yl)butyl]-4-(3-methoxy-2-pyridine-1)piperazine dihydrochloride] has an IC50 of 58 nM. For `COc1ccc2[nH]cc(C3=CCC(N4CCN(c5cccc(Cl)n5)CC4)CC3)c2c1` (stereo not shown) [Example 23, 3-[4-[4-(6-Chloro-2-pvridinyl)-1-piperazinyl]-1cyclohexen-1-yl]-5-methoxy-1H-indole], the IC50 was 99 nM. `COc1cccnc1N1CCN(CCc2c[nH]c3ccccc23)C(C)C1` (stereo not shown) [Example 25] gave an IC50 of 8.6 nM. `COc1cccnc1N1C[C@H]2C[C@@H]1CN2CCc1c[nH]c2ccccc12` [Example 26] was tested, and the IC50 was 106 nM. `COc1cccnc1N1C[C@@H]2C[C@H]1CN2CCc1c[nH]c2ccccc12` [Example 27] was tested, and the IC50 was 12.5 nM. In the case of `Clc1cccc(N2C[C@@H]3C[C@H]2CN3CCc2c[nH]c3ccccc23)n1` [Example 28], the IC50 is reported as 77 nM. For `Clc1cccc(N2C[C@H]3C[C@@H]2CN3CCc2c[nH]c3ccccc23)n1` [Example 29], the IC50 was 106 nM. In the case of `FC(F)(F)c1cccc(N2CCN(CCCc3c[nH]c4ccccc34)CC2)n1` [Example 30], the IC50 is reported as 192 nM. For `Clc1cccc(N2CCN(CCCCc3c[nH]c4ccccc34)CC2)n1` [Example 31], the IC50 was 27 nM. `FC(F)(F)c1cccc(N2CCN(CCCCc3c[nH]c4ccccc34)CC2)n1` [Example 32] was tested, and the IC50 was 259 nM. `FC(F)(F)c1ccnc(N2CCN(CCCc3c[nH]c4ccccc34)CC2)c1` [Example 33] was tested, and the IC50 was 105 nM. For `COc1cccnc1N1C[C@@H]2C[C@H]1CN2CCCc1c[nH]c2ccccc12` [Example 34], the IC50 was 5.6 nM. `COc1cccnc1N1C[C@H]2C[C@@H]1CN2CCCc1c[nH]c2ccccc12` [Example 35] showed an IC50 of 152 nM. In the case of `CC(Cc1c[nH]c2ccccc12)N1CCN(c2cccc(Cl)n2)CC1` (stereo not shown) [Example 36, 3-[2-[4-(6-Chloro-2-pyridyl)-1-piperazinyl]propyl]-indole], the IC50 is reported as 75 nM. For `FC(F)(F)c1ccnc(N2CCN(CCc3c[nH]c4ccccc34)CC2)c1` [Example 37], the IC50 was 386 nM. In the case of `COc1ccc2[nH]cc(CCN3CCN(c4ncccc4OC)CC3)c2c1` [Example 38], the IC50 is reported as 11 nM. `COc1cccnc1N1CCN(CCc2c[nH]c3ccc(F)cc23)CC1` [Example 39] was tested, and the IC50 was 0.2 nM. For `COc1ccc2[nH]cc(CCN3CCN(c4cccc(Cl)n4)CC3)c2c1` [Example 40], the IC50 was 177 nM. In the case of `Fc1ccc2[nH]cc(CCN3CCN(c4cccc(Cl)n4)CC3)c2c1` [Example 41], the IC50 is reported as 2.8 nM. With `Clc1cccnc1N1CCN(CCc2c[nH]c3ccccc23)CC1` [Example 42] the IC50 was 520 nM. Molecule `Fc1ccc2[nH]cc(CCN3CCN(c4cccc(C(F)(F)F)n4)CC3)c2c1` [Example 43] has an IC50 of 73 nM. In the case of `COc1ccc2[nH]cc(CCN3CCN(c4cccc(C(F)(F)F)n4)CC3)c2c1` [Example 44], the IC50 is reported as 560 nM. With `Clc1cccc(N2CCN(C3CC=C(c4c[nH]c5ccccc45)CC3)CC2)n1` (stereo not shown) [Example 45] the IC50 was 100 nM. In the case of `NC(=O)c1ccc2[nH]cc(C3=CCC(N4CCN(c5cccc(Cl)n5)CC4)CC3)c2c1` (stereo not shown) [Example 46], the IC50 is reported as 27 nM. `COc1cccnc1N1CCN(CCc2cn(C)c3ccccc23)CC1` [Example 47] showed an IC50 of 24 nM. For `COc1cc2[nH]cc(CCN3CCN(c4cccc(Cl)n4)CC3)c2cc1OC` [Example 48], the IC50 was 127 nM. Molecule `COc1cccnc1N1CCN(CCCc2cn(C)c3ccccc23)CC1` [Example 50] has an IC50 of 3.7 nM. `Cn1cc(CCCN2CCN(c3cccc(Cl)n3)CC2)c2ccccc21` [Example 51] showed an IC50 of 86 nM. Molecule `Clc1ccc(N2CCN(CCc3c[nH]c4ccccc34)CC2)nc1` [Example 54] has an IC50 of 30 nM. Molecule `Cn1cc(CCN2CCN(c3cccc(Cl)n3)CC2)c2ccccc21` [Example 55] has an IC50 of 126 nM. For `COc1cccnc1N1CCN(CCc2c[nH]c3ccc(Cl)cc23)CC1` [Example 56], the IC50 was < 1 nM. With `Clc1ccc2[nH]cc(CCN3CCN(c4cccc(Cl)n4)CC3)c2c1` [Example 57] the IC50 was 166 nM. `FC(F)(F)c1cccc(N2CCN(CCc3c[nH]c4ccc(Cl)cc34)CC2)n1` [Example 63] showed an IC50 of 437 nM. In the case of `COc1cccnc1N1CCN(CCc2c[nH]c3ccccc23)C(C)C1` (stereo not shown) [Example 64], the IC50 is reported as < 1 nM. With `COc1ccc2c(CCN3CCN(c4cccc(Cl)n4)CC3)c[nH]c2c1` [Example 65] the IC50 was 134 nM. `COc1ccc2c(CCN3CCN(c4ncccc4OC)CC3)c[nH]c2c1` [Example 66] gave an IC50 of 35.9 nM. In the case of `CC(CCc1c[nH]c2ccccc12)N1CCN(c2cccc(Cl)n2)CC1` (stereo not shown) [Example 67], the IC50 is reported as 142 nM. `COc1cccnc1N1CCN(C(C)CCc2c[nH]c3ccccc23)CC1` (stereo not shown) [Example 68] showed an IC50 of 36.7 nM. `COc1cc2[nH]cc(CCN3CCN(c4cccc(C(F)(F)F)n4)CC3)c2cc1OC` [Example 69] gave an IC50 of 479 nM. Molecule `Fc1ccc2[nH]cc(C3=CCC(N4CCN(c5cccc(Cl)n5)CC4)CC3)c2c1` (stereo not shown) [Example 70] has an IC50 of 141 nM. For `COc1ccc(Cl)nc1N1CCN(CCCc2c[nH]c3ccccc23)CC1` [Example 71], the IC50 was 4.9 nM. `CC1CN(c2cccc(Cl)n2)CCN1CCCc1c[nH]c2ccccc12` (stereo not shown) [Example 72] gave an IC50 of 18.7 nM.
